Data taken from patent publication US20040121947A1, “Compounds which inhibit beta-secretase activity and methods of use thereof” (Oklahoma Medical Research Foundation, priority 2000, published 2004).
Like-named read-outs stand apart in the source and are kept apart here. Each block holds one compound with its values, some of them ahead of it.

Target: T1, memapsin 2 (Homo sapiens, UniProt P56817)
T1 construct: pET-11 vector-derived residues 1-15 of promemapsin 2-T1 (N, cleaved yes); made in house; host or cells: E. coli
T1 sequence (P56817 41-454 limits assumed): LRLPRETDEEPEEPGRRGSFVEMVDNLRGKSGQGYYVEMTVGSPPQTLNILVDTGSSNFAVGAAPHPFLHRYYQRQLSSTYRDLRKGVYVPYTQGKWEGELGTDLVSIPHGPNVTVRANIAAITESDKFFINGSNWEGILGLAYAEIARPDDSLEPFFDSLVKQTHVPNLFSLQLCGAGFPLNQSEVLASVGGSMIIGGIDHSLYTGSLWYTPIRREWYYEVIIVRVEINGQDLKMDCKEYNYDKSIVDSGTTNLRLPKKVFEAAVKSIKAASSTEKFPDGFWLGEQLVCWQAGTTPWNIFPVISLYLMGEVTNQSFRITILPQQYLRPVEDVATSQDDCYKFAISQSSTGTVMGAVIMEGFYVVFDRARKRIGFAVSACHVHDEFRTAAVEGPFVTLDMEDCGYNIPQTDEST
Assay: Inhibition of memapsin 2 proteolytic activity, fluorogenic substrate FS-2
Type: biochemical
Conditions: for Vi/Vo: ratio of initial cleavage velocities of FS-2 with/without compound, enzyme and inhibitor concentrations equal (e.g., about 80 nM, 100 nM)
Procedure: Ki is the inhibition equilibrium constant which indicates the ability of compounds to inhibit the β-secretase activity of memapsin 2 and memapsin 1. […] The K1 value is independent of the substrate, and converted from Ki apparent.
The Vi/Vo values depicted in Table 1 were determined at conditions under which the enzyme and inhibitor concentrations were equal (e.g., about 80 nM, 100 nM).
The relationship of Ki (independent of substrate concentration) to Kiapp is a function of substrate concentration in the assay and the Km for cleavage of the substrate by either memapsin 1 or memapsin 2 by the relationship:
The spontaneously activated memapsin 2 was employed in assays to assess the inhibition of memapsin 2 relative to memapsin 1 by compounds of the invention and in some crystallization studies.
An aliquot of the inhibitor of known concentration in DMSO was diluted into 1.8 ml 0.1 M NaOAc, pH 4.0. DMSO and added to a final concentration of 10% (v/v), and memapsin 2 (final concentration of 80 nM), followed by a 20 minute equilibration at 37° C. Compounds were evaluated for the ability to inhibit memapsin 1 and memapsin 2 at concentrations between about 10 nM and about 10 μm of inhibitor.

[1] = memapsin 2, apparent Ki in presence of substrate FS-2, read-out: Ki app
[2] = memapsin 2, independent of substrate, converted from Ki apparent, read-out: Ki
[3] = memapsin 2, apparent Ki in presence of substrate FS-2
[4] = memapsin 2, independent of substrate, converted from Ki apparent
[5] = Ki, [I] < 100, memapsin 2, [I] < 100 (nM)

SMILES: CSCC[C@H](NC(=O)[C@@H](NC(=O)OC(C)(C)C)C(C)C)C(=O)N[C@@H](CC(C)C)[C@@H](O)C[C@@H](C)NC(=O)[C@@H](NC(=O)OCc1ccccc1)C(C)C [MMI-163]
Vi/Vo: 0.57

SMILES: CSCC[C@H](NC(=O)[C@@H](NC(=O)c1cccc(O)c1C)C(C)C)C(=O)N[C@@H](CC(C)C)[C@@H](O)C[C@@H](C)C(=O)N[C@@H](CC(C)C)C(=O)NCc1ccccc1 [MMI-121]
Ki [1]: 9550 nM
Ki [2]: 5970 nM

SMILES: C=CC[C@H](C[C@H](O)[C@H](CC(C)C)NC(=O)[C@H](CC(N)=O)NC(=O)OC(C)(C)C)C(=O)N[C@H](C(=O)NCc1ccccc1)C(C)C [MMI-010]
Ki [1]: 29400 nM
Ki [2]: 18700 nM

SMILES: Cc1cc(C)n(CCOC(=O)N[C@@H](CCN2CCOCC2)C(=O)N[C@@H](CC(C)C)[C@@H](O)C[C@@H](C)C(=O)N[C@@H](CC(C)C)C(=O)NC(C)C)n1 [MMI-223]
Ki [1]: 8420 nM
Ki [2]: 5280 nM

SMILES: CSCC[C@H](NC(=O)[C@@H](NC(=O)OC(C)(C)C)C(C)C)C(=O)N[C@@H](CC(C)C)[C@@H](O)C[C@@H](CC(C)C)C(=O)NC1CCN(Cc2ccccc2)CC1 [MMI-036]
Ki app [3]: N.I.
Ki [4]: N.I.

SMILES: CSCC[C@H](NC(=O)[C@@H](NC(=O)OC(C)(C)C)C(C)C)C(=O)N[C@@H](CC(C)C)[C@@H](O)C[C@@H](C)C(=O)N[C@@H](C(=O)NCc1ccccc1)[C@@H](C)O [MMI-072]
Vi/Vo: 0.9

SMILES: CC(C)C[C@H](NC(=O)[C@H](CS(C)(=O)=O)NC(=O)OCc1ccncc1)[C@@H](O)C[C@@H](C)C(=O)N[C@H](C(=O)NCc1ccccc1)C(C)C [MMI-128]
Vi/Vo: 0.66

SMILES: CSCC[C@H](NC(=O)OC(C)(C)C)C(=O)N[C@@H](CC(C)C)[C@@H](O)C[C@@H](C)C(=O)N[C@H](C(=O)NCc1ccccc1)C(C)C [MMI-015]
Ki [1]: 9040 nM
Ki [2]: 5650 nM

SMILES: CSCC[C@H](NC(=O)[C@@H](NC(=O)OC(C)(C)C)C(C)C)C(=O)N[C@@H](CC(C)C)[C@@H](O)C[C@@H](CC(F)(F)F)C(=O)N[C@H](C(=O)NCc1ccccc1)C(C)C [MMI-030]
Ki [1]: 8520 nM
Ki [2]: 5320 nM

SMILES: CSCC[C@H](NC(=O)NCc1ccco1)C(=O)N[C@@H](CC(C)C)[C@@H](O)C[C@@H](C)C(=O)N[C@H](C(=O)NCc1ccccc1)C(C)C [MMI-117]
Vi/Vo: 0.57

SMILES: CC(C)C[C@H](NC(=O)C(CCS(C)(=O)=O)NC(=O)[C@@H](NC(=O)OC(C)(C)C)C(C)C)[C@@H](O)C[C@@H](C)C(=O)N[C@H](C(=O)NCc1ccccc1)[C@H](C)O (stereo partly drawn) [MMI-082]
Vi/Vo: 0.72

SMILES: CSCC[C@H](NC(=O)[C@@H](NC(=O)OC(C)(C)C)C(C)C)C(=O)N[C@@H](CC(C)C)[C@@H](O)C[C@@H](C)NC(=O)[C@H](NC(=O)OCc1ccccc1)C(C)C [MMI-162]
Vi/Vo: 0.98

SMILES: CCC(C)[C@H](NC(=O)[C@H](C)C[C@H](O)[C@H](CC(C)C)NC(=O)[C@H](CCO)NC(=O)c1cnc2ccccc2c1)C(=O)N[C@H]1c2ccccc2C[C@H]1O (stereo partly drawn) [MMI-050]
Ki [2]: 91200 nM

SMILES: CC(C)C[C@H](NC(=O)[C@@H](NC(=O)OC(C)(C)C)C(C)C)[C@@H](O)CN(C)C(=O)[C@H](NC(=O)OCc1ccccc1)C(C)C [MMI-062]
Ki app [3]: N.I.
Ki [4]: N.I.

SMILES: CSCC[C@H](NC(=O)OC(C)(C)C)C(=O)N[C@@H](CC(C)C)[C@@H](O)C[C@@H](C)C(=O)N[C@@H](C)C(=O)NCc1ccccc1 [MMI-006]
Ki [1]: 63300 nM
Ki [2]: 40200 nM

SMILES: CSC[C@H](NC(=O)OC(C)(C)C)C(=O)N[C@@H](CC(C)C)[C@@H](O)C[C@@H](C)C(=O)N[C@H](C(=O)NCc1ccccc1)C(C)C [MMI-023]
Ki [1]: 15300 nM
Ki [2]: 9550 nM

SMILES: CC(C)C[C@H](NC(=O)[C@H](CCO)NC(=O)c1cnc2ccccc2c1)[C@@H](O)C[C@@H](C)C(=O)N[C@H](C(=O)N[C@H]1c2ccccc2C[C@H]1O)C(C)C [MMI-049]
Ki [2]: 124000 nM

SMILES: CC(C)C[C@H](NC(=O)[C@H](CCS(C)(=O)=O)NC(=O)[C@@H](NC(=O)OC(C)(C)C)C(C)C)[C@@H](O)C[C@@H](C)C(=O)N[C@H]1c2ccccc2C[C@H]1O [MMI-047]
Ki [2]: 69100 nM

SMILES: CSCC[C@H](NC(=O)[C@@H](NC(=O)OC(C)(C)C)C(C)C)C(=O)N[C@@H](CC(C)C)[C@@H](O)C[C@@H](C)C(=O)N[C@H]1CCCC[C@@H]1O [MMI-051]
Ki app [3]: N.I.
Ki [4]: N.I.

Further compounds by falling Ki [2], results first:

Ki [1]: 6840 nM
Ki [2]: 4280 nM
SMILES: CSCC[C@H](NC(=O)OCc1ccc(CN(C)C)o1)C(=O)N[C@@H](CC(C)C)[C@@H](O)C[C@@H](C)C(=O)N[C@H](C(=O)NCc1ccccc1)C(C)C [MMI-127]

Ki [1]: 5640 nM
Ki [2]: 3530 nM
SMILES: CC(C)C[C@H](NC(=O)[C@H](CCS(C)(=O)=O)NC(=O)OC(C)(C)C)[C@@H](O)C[C@@H](C)C(=O)N[C@H](C(=O)NCc1ccccc1)C(C)C [MMI-016]

Ki [5]: 175 nM
Ki [1]: 1800 nM
Ki [2]: 1130 nM
Vi/Vo: 0.66
SMILES: CSCC[C@H](NC(=O)c1cccc(O)c1C)C(=O)N[C@@H](CC(C)C)[C@@H](O)C[C@@H](C)C(=O)N[C@@H](CC(C)C)C(=O)NCc1ccccc1 [MMI-120]

Ki [1]: 1030 nM
Ki [2]: 646 nM
SMILES: CC(C)C[C@H](NC(=O)[C@H](CCS(C)(=O)=O)NC(=O)[C@@H](NC(=O)OC(C)(C)C)C(C)C)[C@@H](O)C[C@@H](C)C(=O)N[C@H](C(=O)NCc1cccnc1)C(C)C [MMI-088]

Ki [5]: 190 nM
Ki [1]: 963 nM
Ki [2]: 602 nM
SMILES: COc1cccc(C(=O)N[C@@H](CSC)C(=O)N[C@@H](CC(C)C)[C@@H](O)C[C@@H](C)C(=O)N[C@@H](CC(C)C)C(=O)NC(C)C)c1OC [MMI-199]

Ki [1]: 899 nM
Ki [2]: 562 nM
SMILES: CSCC[C@H](NC(=O)c1cccc(C)c1C)C(=O)N[C@@H](CC(C)C)[C@@H](O)C[C@@H](C)C(=O)N[C@@H](CC(C)C)C(=O)NC(C)C [MMI-210]

Ki [1]: 864 nM
Ki [2]: 539 nM
SMILES: CCC[C@H](C[C@H](O)[C@H](CC(C)C)NC(=O)[C@H](CSC)NC(=O)OCc1cccnc1)C(=O)N[C@H](C(=O)NCc1ccccc1)C(C)C [MMI-031]

Ki [1]: 426 nM
Ki [2]: 266 nM
SMILES: CC(C)C[C@H](NC(=O)[C@H](CCS(C)(=O)=O)NC(=O)[C@@H](NC(=O)OC(C)(C)C)C(C)C)[C@@H](O)C[C@@H](C)C(=O)N[C@H](C(=O)NCc1ccccc1)C1CCCO1 (stereo partly drawn) [MMI-035]

Ki [1]: 311 nM
Ki [2]: 194 nM
SMILES: Cc1ccc(S(=O)(=O)N[C@@H](CC(C)C)C(=O)N[C@@H](CCS(C)(=O)=O)C(=O)N[C@@H](CC(C)C)[C@@H](O)C[C@@H](C)C(=O)N[C@H](C(=O)NCc2ccccc2)C(C)C)cc1 [MMI-090]

Ki [1]: 112 nM
Ki [2]: 70.1 nM
SMILES: C=CC[C@H](C[C@H](O)[C@H](CC(C)C)NC(=O)[C@H](CC(N)=O)NC(=O)[C@@H](NC(=O)OC(C)(C)C)C(C)C)C(=O)N[C@H](C(=O)NCc1ccccc1)C(C)C [MMI-021]

Ki [1]: 99.9 nM
Ki [2]: 62.1 nM
SMILES: CSCC[C@H](NC(=O)[C@H](CC(C)C)NC(=O)OC(C)(C)C)C(=O)N[C@@H](CC(C)C)[C@H](O)C[C@@H](C)C(=O)N[C@H](C(=O)NCc1ccccc1)C(C)C [MMI-113]

Ki [1]: 94.5 nM
Ki [2]: 59.1 nM
SMILES: CSCC[C@H](NC(=O)[C@@H](NC(=O)OC(C)(C)C)[C@H](C)O)C(=O)N[C@@H](CC(C)C)[C@@H](O)C[C@@H](C)C(=O)N[C@@H](CC(C)C)C(=O)NC(C)C [MMI-197]

Ki [1]: 41 nM
Ki [2]: 25.7 nM
SMILES: CSCC[C@H](NC(=O)C(Cn1nc(C)cc1C)C(C)C)C(=O)N[C@@H](CC(C)C)[C@@H](O)C[C@@H](C)C(=O)N[C@H](C(=O)NCc1ccco1)C(C)C (stereo partly drawn) [MMI-225]

Ki [1]: 29.1 nM
Ki [2]: 18.2 nM
SMILES: COCOCC[C@H](NC(=O)[C@H](CC(C)C)NC(=O)OC(C)(C)C)C(=O)N[C@@H](CC(C)C)[C@@H](O)C[C@@H](C)C(=O)N[C@@H](CC(C)C)C(=O)NC(C)C [MMI-190]

Ki [1]: 24.5 nM
Ki [2]: 15.3 nM
Vi/Vo: 0.69
SMILES: CCCCNC(=O)[C@@H](NC(=O)[C@H](C)C[C@H](O)[C@H](CC1CCC1)NC(=O)[C@H](CCSC)NC(=O)OCn1nc(C)cc1C)C(C)C [MMI-178]

Ki [1]: 19 nM
Ki [2]: 11.9 nM
SMILES: CSCC[C@H](NC(=O)C(C)Cn1nc(C)cc1C)C(=O)N[C@@H](CC(C)C)[C@@H](O)C[C@@H](C)C(=O)N[C@H](C(=O)NCc1ccco1)C(C)C (stereo partly drawn) [MMI-214]

Ki [1]: 11.9 nM
Ki [2]: 7.45 nM
SMILES: CSCC[C@H](NC(=O)[C@H](CC(C)C)NS(C)(=O)=O)C(=O)N[C@@H](CC(C)C)[C@@H](O)C[C@@H](C)C(=O)N[C@H](C(=O)NCc1ccccc1)C(C)C [MMI-093]

Ki [1]: 10.3 nM
Ki [2]: 6.46 nM
Vi/Vo: 0.12
SMILES: CC(C)CNC(=O)[C@@H](NC(=O)[C@H](C)C[C@H](O)[C@H](CC(C)C)NC(=O)[C@H](CCS(C)(=O)=O)NC(=O)[C@H](CC(C)C)NC(=O)OC(C)(C)C)C(C)C [MMI-135]

Ki [1]: 4.9 nM
Ki [2]: 3.06 nM
SMILES: CSCC[C@H](NC(=O)[C@H](CC(C)C)NC(=O)OC(C)(C)C)C(=O)N[C@@H](CC(C)C)[C@@H](O)C[C@@H](C)C(=O)N[C@H](C(=O)NCc1ccccc1)C(C)C [MMI-070]

Ki [1]: 2.06 nM
Ki [2]: 1.28 nM
Vi/Vo: 0.08
SMILES: CSCC[C@H](NC(=O)[C@@H](NC(=O)OC(C)(C)C)C(C)C)C(=O)N[C@@H](CO)[C@@H](O)C[C@@H](C)C(=O)N[C@H](C(=O)NCc1ccccc1)C(C)C [MMI-155]
